Where two headings read alike, the source gives them in different places.
Experiments:
[1] = test system: corneal neovascularization; assay: Off-label topical AVASTIN for corneal neovascularization using the scleral lens drug delivery system; format: in vivo
Description: This study using AVASTIN® off-label, topically, to treat corneal neovascularization was repeated using the scleral lens drug delivery system. […] This therapeutic effect was achieved without BAK. Instead, the expanded pre-corneal tear film of the scleral lens drug delivery system provided adequate bioavailability of the drug without exposing the cornea to BAK.

[2] = test system: corneal neovascularization; details: solution of 1% AVASTIN and 0.01% BAK, one drop, four times per day for at least thirty days, topical drops; cited from earlier work

bevacizumab [AVASTIN®]
therapeutic effect on corneal neovascularization ([1]; one drop of 1% AVASTIN added to expanded pre-corneal tear film of artificial tears in scleral lens twice per day, without BAK, by thirty days, continued benefit over subsequent sixty days): achieved a therapeutic effect by thirty days with continued benefit over the subsequent sixty days
regression of corneal neovascularization (clinical photos, FIG. 5) ([1]; scleral lens drug delivery system): regression of corneal neovascularization
therapeutic effect on corneal neovascularization [2]: Therapeutic effect was reported
